{"source": "patent US20200352918A1", "about": "“COMPOUNDS AND METHODS FOR TREATING OR PREVENTING FIBROSIS” (priority 2019, published 2020)", "key": {"[1]": {"test_system": "iFA phenotype of mesenchymal-like cells on 13 kPa hydrogels", "assay": "iFA resolution screen (reversal of fibrosis) in the iFA model", "format": "cell-based, human", "details": "phenotype formed over 10 days, then compounds added", "method": "Signal-to-background (S/B) ratio, standard variation and variation coefficients were calculated as the signal of DMSO treated wells divided by the signal of the hit compound (AA5) treated wells. Z′ values were used to measure assay quality which was calculated by the formula of Z′=1−3(SDTotal+SDBackground)/(MeanTotal−MeanBackground)(Inglese et al., 2006) where SDTotal and MeanTotal are the standard deviation and mean of signal for DMSO treated wells, and SDBackground and MeanBackground are the standard deviation and mean of signal for AA5 treated wells. Data normalization and curve fitting were performed as previously reported (Kariv et al., 1999, J Biomol Screen 4, 27-32.). Z′ values were obtained for the number of cellular aggregates and also calculated a phenotypic cell index as the product of cell number x area/Log(number of iFA aggregates+5). Secondary screening using α-SMA and collagen deposition was employed to further ensure efficacy and resolution of the iFA phenotype of the compounds. For the resolution screen, cells were seeded in a 96-well plate as mentioned above and compounds were added at day 13 to analyze their capacity to resolve the iFA phenotype using the same readouts as above. Dose response experiments were carried out as in the secondary screen but with at least 12 steps of a 1:1 dilution resulting in final compound concentrations from 500 μM to high nanomolar ranges.\nThe primary assay involved plating together the iPSCs and Table 1 compounds sourced from the library on day 1 on the hydrogel and examining the phenotype on day 7 of the culture as described herein. The secondary screen repeated the assay using compound sourced commercially or from additional library materials. The dose response refers to a 20 point dose course that ranges from picomolar to millimolar concentrations. […] As described herein, the cellular phenotype parameters evaluated included size, fluorescence intensity of the iFA phenotype, the shape factor of the cells/aggregates, and the cells' viability in the presence of viability dyes (Calcein AM)."}, "[2]": {"test_system": "iFA phenotype of mesenchymal-like cells on 13 kPa hydrogels", "assay": "iFA-prevention phenotypic high-content drug screen (iFA model)", "format": "cell-based, human", "method": "Mesenchymal-like cells were cultured on 13 kPa functionalized polyacrylamide gels that were prepared as follows. 187.5 μl of 40% acrylamide, 60 μl of 2% bis-acrylamide and 8.55 μl of sodium bisulfate in a final volume of 990 μl of water was incubated for 20 min at room temperature to degas the mixture. To this mixture, 0.10% ammonium persulfate and 0.15% TEMED were added, mixed and 100 μl of the solution was added onto a 0.4% 3-(Trimethoxysily) propyl methacrylate pH 3.5 treated coverslip. A 2% dimethyl dichlorosilane in chloroform treated round glass coverslip was then inverted on the acrylamide solution and allowed to polymerize for 15 min between the two surfaces. The top coverslip was gently removed, and the bottom coverslips with the hydrogel were transferred to appropriate multi-well low adherent tissue culture plate containing coupling buffer (0.1 M sodium phosphate dibasic, 0.1 M sodium phosphate monobasic) pH 8. To functionalize the hydrogel, 1 part of 0.1 M p-benzoquinone in dioxane was added to the hydrogels containing 4 parts of coupling buffer and incubated at 37° C. for 30 min. The gel was then successively washed with 20% dioxane in water, water, 0.1 M sodium acetate buffer at pH 4.0 containing 1.0 M sodium chloride, 0.1 M sodium bicarbonate solution at pH 8.5 containing 1.0 M sodium chloride, and finally with coupling buffer at pH 7.5. The hydrogels were then coated with 0.1% gelatin for 2 hrs prior to seeding the cells. Cells were seeded at a density of 3000 cells/cm^2.\nA phenotypic high-content drug screen was prepared to identify compounds capable of preventing the iFA phenotype in a 96-well format. An ImageXpress XL high-throughput imager with a 4× Plan objective (N/A 0.20) was used with image based focusing. Briefly, 100 μL media were plated in each well of 96 well plate using a Thermo Multidrop non-contact dispenser. Using a custom V&P pin tool mounted to a Beckman FX liquid handler, 1.5 μL compounds or DMSO were added. Mesenchymal-like cells were added as a suspension using the Multidrop at a density of 3.5×10^3 cells/well. The resulting compound concentration was 10 μM. Cells were imaged after 7 days of incubation at 37° C. and 5% CO2: A final of 0.5 μg/ml of Calcein AM and/or 10 μg/ml propidium iodide (viability dye) with 1 μg/ml Hoechst 33342 were added and imaged using the ImageXpress XL system. Data mining was performed using a custom module consisting of the following steps: The image background was removed using a top-hat filter with 25 μm round shape polisher. Next, cellular aggregates and individual spindle-shaped cells were identified. Aggregates of cells were defined by size with a cut-off of 60 to 200 micron and an intensity of at least 200 gray scales over background. Individual spindle-shaped cells were identified as smaller objects with cut-offs from 15 to 100 micron and a lower intensity of at least 70 gray scales over background.\nAdditional morphometric measurements were made by counting labeled cell nuclei and measuring total area covered with cells per well. The data resulting from the screen were batch exported through MetaXpress and uploaded into a Collaborative Drug Discovery (CDD) cloud based database (Ekins and Bunin, 2013, Methods in molecular biology 993, 139-154.). Hits were selected on a cut-off of more than 3 standard deviations from mean using data normalized to reference wells in each plate. IC50 values (the half maximal inhibitory concentration) from confirmation experiments were calculated from dose-response signal curves using the Prism software (GraphPad Software).\nSignal-to-background (S/B) ratio, standard variation and variation coefficients were calculated as the signal of DMSO treated wells divided by the signal of the hit compound (AA5) treated wells. […]"}}}
{"compound": "CNC(C)Cc1cccs1", "note": "(stereo not shown) [Methiopropamine]", "values": [{"measurement": "Reversal of fibrosis", "setting": "[1]", "result": "Yes"}, {"measurement": "Dose response", "setting": "[2]; 20 point dose course, picomolar to millimolar", "result": "+++ (+++ = strong effect)"}, {"measurement": "Efficacy in secondary screen", "setting": "[2]; assay repeated with compound sourced commercially or from additional library materials", "result": "+++ (+++ = strong effect)"}, {"measurement": "Efficacy in primary screen", "setting": "[2]; library compound plated with cells on day 1 on hydrogel, phenotype on day 7, 10 μM", "result": "+++ (+++ = strong effect)"}]}
